Test results as given in US9423396B2, “Bodipy structure fluorescence probes for diverse biological applications” (National University of Singapore, priority 2011, dated 2016).

Experiment: Spectroscopic measurements (absorption, emission, quantum yield, extinction coefficient)
Assay type: physicochemical
Details: BDNCA library; for Abs: absorption; for Flu-Abs: difference emission minus absorption; for ε: extinction coefficient, in M-1 cm-1 (unit assumed); for Flu: fluorescence emission

Row | Compound | Qunt. Yield | Abs [nm] | Flu-Abs | ε | Flu
1 | CC1=CC(/C=C/c2ccc(O)cc2)=[N+]2C1=C(c1ccc(NC(=O)CCl)cc1)c1cccn1[B-]2(F)F [BDNCA-153] | 0.05 | 569 | 37 | 23,341 | 606
2 | CC1=CC(/C=C/c2ccc(OCCCN(C)C)cc2)=[N+]2C1=C(c1ccc(NC(=O)CCl)cc1)c1cccn1[B-]2(F)F [BDNCA-163] | 0.04 | 566 | 29 | 24,165 | 595
3 | CC1=CC(/C=C/c2ccc(C(C)(C)C)cc2)=[N+]2C1=C(c1ccc(NC(=O)CCl)cc1)c1cccn1[B-]2(F)F [BDNCA-177] | 0.15 | 558 | 23 | 73,867 | 581
4 | COc1ccc(Oc2ccc(/C=C/c3cc(C)c4n3[B-](F)(F)[N+]3=CC=CC3=C4c3ccc(NC(=O)CCl)cc3)cc2)cc1 [BDNCA-178] | 0.09 | 563 | 26 | 61,785 | 589
5 | COC(=O)c1ccc(-c2ccc(/C=C/C3=[N+]4C(=C(c5ccc(NC(=O)CCl)cc5)c5cccn5[B-]4(F)F)C(C)=C3)cc2)cc1 [BDNCA-179] | 0.14 | 566 | 23 | 52,998 | 589
6 | CC1=CC(/C=C/c2ccc(Cl)c(Cl)c2)=[N+]2C1=C(c1ccc(NC(=O)CCl)cc1)c1cccn1[B-]2(F)F [BDNCA-182] | 0.08 | 557 | 18 | 37,620 | 575
7 | CC1=CC(/C=C/c2c[nH]c3ccc(Br)cc23)=[N+]2C1=C(c1ccc(NC(=O)CCl)cc1)c1cccn1[B-]2(F)F [BDNCA-185] | 0.06 | 581 | 65 | 29,931 | 646
8 | COc1cccc(/C=C/C2=[N+]3C(=C(c4ccc(NC(=O)CCl)cc4)c4cccn4[B-]3(F)F)C(C)=C2)c1 [BDNCA-186] | 0.14 | 556 | 20 | 61,510 | 576
9 | Cc1cc(/C=C/c2ccccc2C(=O)O)n2c1C(c1ccc(NC(=O)CCl)cc1)=C1C=CC=[N+]1[B-]2(F)F [BDNCA-191] | 0.06 | 556 | 18 | 24,714 | 574
10 | COc1ccc(/C=C/c2cc(C)c3n2[B-](F)(F)[N+]2=CC=CC2=C3c2ccc(NC(=O)CCl)cc2)c(O)c1 [BDNCA-192] | 0.03 | 577 | 53 | 21,693 | 630
11 | COc1ccc(-c2ccc(/C=C/C3=[N+]4C(=C(c5ccc(NC(=O)CCl)cc5)c5cccn5[B-]4(F)F)C(C)=C3)o2)cc1Cl [BDNCA-195] | 0.01 | 605 | – | 21,968 | 681
12 | COc1ccccc1/C=C/c1cc(C)c2n1[B-](F)(F)[N+]1=CC=CC1=C2c1ccc(NC(=O)CCl)cc1 [BDNCA-198] | 0.15 | 561 | 26 | 76,064 | 587
13 | CC1=CC(/C=C/c2ccc(-c3cncnc3)cc2)=[N+]2C1=C(c1ccc(NC(=O)CCl)cc1)c1cccn1[B-]2(F)F [BDNCA-199] | 0.15 | 563 | 20 | 59,314 | 583
14 | C=CCOc1ccccc1/C=C/C1=[N+]2C(=C(c3ccc(NC(=O)CCl)cc3)c3cccn3[B-]2(F)F)C(C)=C1 [BDNCA-202] | 0.13 | 561 | 24 | 57,666 | 585
15 | COc1ccc(/C=C/c2cc(C)c3n2[B-](F)(F)[N+]2=CC=CC2=C3c2ccc(NC(=O)CCl)cc2)c(OC)c1 [BDNCA-206] | 0.13 | 574 | 44 | 44,485 | 618
